Laboratory results taken from patent publication US20260224714A1, “CYCLING LYSOSOMAL TARGETING ANTIBODY CONJUGATES” (Lycia Therapeutics, Inc., priority 2023, published 2026).

Experiments:
Type in all cases: cell-based
[1] = system: Alexa Fluor647 labelled human IgE; assay: Uptake assay: internalization of Alexa Fluor 647 labelled IgE in wild type HepG2 cells (Example 6); conditions: equimolar conjugate and AF647 IgE, 2 hours, median cellular AF647 intensity by flow cytometry, normalized to unconjugated parent protein
Procedure: (§1) The following experiments were performed with HepG2 hepatocellular carcinoma cells, grown in Eagle's Minimal Essential Media (EMEM) supplemented with 10% FBS and penicillin/streptomycin.
(§2) HepG2 cells (25,000) were plated in 96-well plates 48 hours before the experiment was performed. On the day of the experiment, indicated the conjugate was mixed with an equimolar stock of Alexa Fluor647 labelled human IgE (Enzo Life Sciences, BPD-DIA-HE 1) in fresh EMEM as a 600 nM stock. The precomplexed conjugate:IgE mixture was incubated at room temperature for 30 minutes. During the precomplexing step, media from HepG2 was removed, and 40 ul of EMEM with 1/100 Fc Receptor Blocking Solution (Biolegend Human TruStain FcX, 422302) was added. Cells incubated in the receptor blocking solution for 10 minutes while making serial dilutions (1:3) of conjugate:IgE stock solution in EMEM. 40 ul of the conjugate:IgE mixture in EMEM was then added to cells (six dilutions, with final concentrations ranging from 300 nM to 1.23 nM) for 2 hours before washing with DPBS and detaching with 0.25% Trypsin/EDTA. Cells were pelleted in 96-well conical bottom plates, washed once with FACS Buffer with BSA (Rockland Immunochemicals), and resuspended in FACS Buffer with BSA. Uptake of fluorescently labelled IgE was measured by analyzing median cellular AF647 intensity by flow cytometry.
(§3) Cells were incubated with equimolar ratio of conjugate and AF647 IgE at indicated concentrations, with data normalized to unconjugated parent protein (Oma S35HWY57H-LC).

[2] = system: Alexa Fluor647 labelled human IgE; assay: Uptake assay: internalization of Alexa Fluor 647 labelled IgE in ASGPR1/2 KO HepG2 cells (Example 6); conditions: equimolar conjugate and AF647 IgE, normalized to unconjugated parent protein
Procedure: as §1, §2, §3

[3] = system: LysoLight-labelled human IgE; assay: Lysosomal degradation of LysoLight-labelled IgE in HepG2 cells, live cell imaging (Example 7); conditions: equimolar conjugate:LysoLight IgE, area under the curve of deep red fluorescence over three days, normalized to unconjugated parent protein
Procedure: as §1
HepG2 cells (15,000) were plated in 96-well plates 72 hours before performing the experiment. On the day of the experiment, indicated the conjugate was diluted in fresh EMEM and mixed with an equimolar stock of LysoLight-labelled human IgE (Enzo Life Sciences, BPD-DIA-HE1), at 200 nM of each compound. The precomplexed conjugate:IgE mixture was incubated at room temperature for 30 minutes. During the precomplexing step, media from HepG2 was removed, and 40 ul of EMEM with 1/100 Fc Receptor Blocking Solution (Biolegend Human TruStain FcX, 422302) was added. Cells incubated in the receptor blocking solution for 10 minutes while making serial dilutions (1:3) of conjugate:IgE stock solution in EMEM. 40 ul of the conjugate:IgE mixture in EMEM was then added to cells (five dilutions, with final concentrations ranging from 100 nM to 1.23 nM). Cells were placed in an IncuCyte Live-Cell Analysis System (Sartorius) for long term live cell imaging analysis (10× magnification, 3 images per well). One hour after addition of compound, image acquisition to measure red fluorescence from the LysoLight probe was started, with further Images collected every hour for 72 hours. Fluorescence of the LysoLight probe only occurs when cleaved by lysosomal cathepsin proteases, confirming lysosomal delivery and degradation of target. After 72 hours, mean red fluorescence was measured for each time point, and the area under the curve of fluorescence overtime was used to measure total degradation over the 3-day time period.

HepG2 cells = assay: Externalization of conjugates from a cell following internalization (cycling), high-throughput format (Example 11); conditions: 50 nM conjugate 1 hour, stringent washes, Alexa Fluor 647-labelled a-human IgG 1 hour, FACS, normalized to unconjugated parent protein, average of two replicate wells
Procedure: as §1
The method was also adapted to a high-throughput format. In this assay, 25,000 HepG2 cells were plated in 96-well plates 48 hours before performing the experiment. The day of the experiment, cells were incubated with conjugate at indicated concentrations for 1 hour. Cells were then placed on ice to prevent trafficking/recycling during wash steps, and washed once with DPBS, once with sodium acetate buffer (20 mM, 150 mM NaCl, pH 5.2), once with Earle's Balanced Salt Solution (EBSS) adjusted to pH 2.5, and once again with DPBS, to remove conjugate from media and cell surface. Afterwards, 100 ul of prewarmed (to 37° C.) EMEM with 1 μg/ml of human a-IgG antibody conjugated to Alexa Fluor647 fluorophores was added to cells for 1 hour before washing with DPBS and detaching with 0.25% Trypsin/EDTA. Cells were pelleted in 96-well conical bottom plates, washed once with FACS Buffer with BSA (Rockland Immunochemicals), resuspended FACS Buffer with BSA and median AF647 intensity was analyzed by flow cytometry. The amount of conjugate capable of cycling to the cell surface (being externalized from the cell) and binding to the Alexa Fluor647 labelled α-IgG was measured by analyzing median cellular 647 fluorescence intensity by flow cytometry. […]. Reported values are the average of the values of two replicate wells.

human IgE = assay: Degradation of initial and subsequent dose of target in HepG2 cells (Example 12, Table 30); conditions: normalized to unconjugated; for Normalized Fluorescence Post Wash Median Green: after wash, probe-conjugated IgE added for 4 hours, subsequent dose of target; for Normalized Fluorescence Precomplex Median Deep Red: precomplexed equimolar conjugate:IgE (cathepsin-cleavable quenched fluorescent probe) added for 2 hours, initial dose of target
Procedure: as §1
HepG2 cells (25,000) were plated in 96-well plates 48 hours before performing the experiment. On the day of the experiment, indicated conjugate was diluted in fresh EMEM as a 2× stock, and mixed with an equimolar stock of human IgE (Enzo Life Sciences, BPD-DIA-HE 1) conjugated to a cathepsin-cleavable quenched fluorescent probe. The precomplexed conjugate:IgE mixture was incubated at 37 degrees Celsius for 30 minutes. Media from HepG2 was removed, and conjugate:IgE mixture in EMEM was added to cells for 2 hours. Cells were then placed on ice to prevent trafficking/recycling during wash steps, and washed once with DPBS, once with sodium acetate buffer (20 mM, 150 mM NaCl, pH 5.2), once with Earle's Balanced Salt Solution (EBSS) adjusted to pH 2.5, and once again with DPBS, to remove conjugate from media and cell surface. Afterwards, 100 ul of prewarmed (to 37 degrees Celsius) EMEM with cathepsin-cleavable quenched fluorescent probe-conjugated IgE was added to cells for 4 hours before washing with DPBS and detaching with 0.25% Trypsin/EDTA. Cells were pelleted in 96-well conical bottom plates, washed once with FACS Buffer with BSA (Rockland Immunochemicals), resuspended FACS Buffer with BSA and median 488 and 647 intensity was analyzed by flow cytometry. Delivery of labelled IgE to the lysosome and subsequent cleavage of initial precomplexed IgE was measured by analyzing median cellular 647 intensity, while cleavage of the post wash addition of IgE, which should only be degraded by recycling conjugates which released the first round of precomplexed IgE, was analyzed by median cellular 488 intensity. HepG2 cells were treated with human IgE (Enzo Life Sciences, BPD-DIA-HE1) conjugated to a cathepsin-cleavable quenched deep red (647) fluorescent probe precomplexed to conjugate fortwo hours, then washed, and fresh media with IgE conjugated to a green (488) cathepsin-cleavable fluorescent probe was then added without conjugate. […] Fluorescence values were measured by FACS and normalized to unconjugated parent protein. Reported values are the average of the values of two replicate wells.

recombinant IgE = assay: Degradation of super-stoichiometric levels of target in HepG2 cells (Example 13, Table 31); conditions: 1 nM conjugate and 25 nM IgE for three days, (A-B)/C IgE depleted relative to conjugate, average of two replicate wells
Procedure: as §1
For evaluation of compounds in a high throughput format, 25,000 HepG2 cells were plated in a 96-well plate. The following day, 50 ul of 1 nM conjugate and 25 nM recombinant IgE in EMEM were added to the cells. 50 ul of the initial stock of conjugate:IgE was saved to quantify for an initial time point. Three days later, the media was collected from cells, and both initial and 72 hour time points were quantified for IgE concentration using the MSD assay.
HepG2 cells were incubated in media containing 1 nM conjugate and 25 nM IgE for three days. Concentrations of IgE at beginning and end of experiment were quantified by ELISA-based assay. Molar equivalents of IgE depleted relative to conjugate added are shown, calculated as (A-B)/C, where A is the initial concentration of IgE, B is the concentration of IgE at day three, and C is the concentration of conjugate. Reported values are the average of the values of two replicate wells.

SMILES | Normalized Fluorescence 3.7 nM WT [1] | Normalized Fluorescence 100 nM WT [1] | Normalized Fluorescence 100 nM ASGPR KO [2] | Normalized Fluorescence 3.7 nM [3] | Normalized Fluorescence 100 nM [3] | Normalized Fluorescence (HepG2 cells) | Normalized Fluorescence Post Wash Median Green (human IgE) | Normalized Fluorescence Precomplex Median Deep Red (human IgE) | Average Degradation (Molar equivalents) (recombinant IgE)
O=C(CCOCCOCCOCCNS(=O)(=O)c1ccc(N2C(=O)C=CC2=O)cc1)NC(CCCNC(=O)NCCOCCOCCCc1cncc(N[C@H]2CO[C@H](CO)[C@H](O)[C@@H]2O)n1)(CCCNC(=O)NCCOCCOCCCc1cncc(N[C@H]2CO[C@H](CO)[C@H](O)[C@@H]2O)n1)CCCNC(=O)NCCOCCOCCCc1cncc(N[C@H]2CO[C@H](CO)[C@H](O)[C@@H]2O)n1 [Compound 2303] | 70.6 | 232.7 | 1.1 | 10.2 | 3.7 | 52.7 | 3.6 | 3.4 | 3.6 Molar equivalents
CC(CCCNC(=O)NCCOCCOCCOCC(F)(F)c1cncc(N[C@H]2CO[C@H](CO)[C@H](O)[C@@H]2O)n1)(CCCNC(=O)NCCOCCOCCOCC(F)(F)c1cncc(N[C@H]2CO[C@H](CO)[C@H](O)[C@@H]2O)n1)NC(=O)CCOCCOCCOCCNS(=O)(=O)c1ccc(N2C(=O)C=CC2=O)cc1 [Compound 2304] | 150.3 | 292.5 | 1.0 | 12.7 | 4.0 | 82.2 | 4.1 | 3.9 | 8.8 Molar equivalents
O=C(CCOCCOCCOCCNS(=O)(=O)c1ccc(N2C(=O)C=CC2=O)cc1)NC(CCCNC(=O)NCCOCCOCCOC[C@@H]1CN([C@H]2CO[C@H](CO)[C@H](O)[C@@H]2O)C(=O)O1)(CCCNC(=O)NCCOCCOCCOC[C@@H]1CN([C@H]2CO[C@H](CO)[C@H](O)[C@@H]2O)C(=O)O1)CCCNC(=O)NCCOCCOCCOC[C@@H]1CN([C@H]2CO[C@H](CO)[C@H](O)[C@@H]2O)C(=O)O1 [Compound 2306] | 31.0 | 164.6 | 1.1 | 5.6 | 1.8 | 23.1 | 2.4 | 2.5 | 1.8 Molar equivalents
CC(=O)N[C@@H]1[C@@H](O)[C@@H](O)[C@@H](CO)O[C@@H]1CCCOCCOCCNC(=O)NCCCC(CCCNC(=O)NCCOCCOCCC[C@H]1O[C@H](CO)[C@H](O)[C@H](O)[C@H]1NC(C)=O)(CCCNC(=O)NCCOCCOCCC[C@H]1O[C@H](CO)[C@H](O)[C@H](O)[C@H]1NC(C)=O)NC(=O)COCCOCCOCCOCCN(C(=O)CBr)C1CCOCC1 [Compound 2307, N-[4-[2-[2-[3-[(2R,3R,4R,5R,6R)-3-acetamido-4,5-dihydroxy-6-(hydroxymethyl)tetrahydropyran-2-yl]propoxy]ethoxy]ethylcarbamoylamino]-1,1-bis[3-[2-[2-[3-[(2R,3R,4R,5R,6R)-3-acetamido-4,5-dihydroxy-6-(hydroxymethyl)tetrahydropyran-2-yl]propoxy]ethoxy]ethylcarbamoylamino]propyl]butyl]-2-[2-[2-[2-[2-[(2-bromoacetyl)-tetrahydropyran-4-yl-amino]ethoxy]ethoxy]ethoxy]ethoxy]acetamide] | 81.6 | 253.2 | 1.2 | 7.9 | 4.1 | 42.9 | 3.5 | 3.7 | 5.6 Molar equivalents
